The test system of one assay is female Aedes aegypti. Description: K&D module high-throughput feeding assay. Type of assay: in vivo. The following applies: for mean fed / mean probed: five females/cell. The procedure:
Highthrouhput Feeding Assay: The K&D module was developed at USDA for evaluating feeding deterrence and toxicity of candidate topical repellents against hemophagus arthropod vectors (Klun, J. A., and M. Debboun, J. Med. Entomol., 37: 177-181 (2000)). In the present study the K&D module was used as a highthrouhput screening tool to evaluate response of Ae. aegypti to attractant\feeding stimuli.
In vitro bioassays were conducted as described by Klun et. al., 2000. […] The three treatments were randomly assigned to consecutive cells in 2,6-cell reservoirs connected in series to a single water-bath pump; thus, 4 replicates could be tested/run.
Tests were performed in an Air Science USA hood, with an air movement velocity of approx. 110-120 ft./min., temperature of 25-27° C., and RH of 15-25%. A six-celled reservoir was connected to and heated by a constant-temperature (38° C.) water circulator (Lauda E100, Wobser GMGH and Co., Konigshofell, Germany).
Prior to each test, the upper surface of each reservoir was coated with a thin layer of high-vacuum silicone grease (Dow Corning Corp., Midland, Mich.), and the cells then filled (approx. 6 ml. capacity) or topped-off with the following: (1) expired human red blood cells suspended in citrate-phosphate-dextrose-adenine (CPDA) solution, not more than 1 month past expiration date, and to which 110 mg ATP/35 ml. blood-CPDA had been added on the day of testing; or (2) CPDA+ATP×10^−3, usually made up or diluted to 10^−3 ATP on the day of testing.
The filled cells were then covered with an Edicol collagen membrane strip (Devro, Sandy Run, S.C.), and then with a just-treated (110 μl of 4.54 nmol/μl treatment or control solution) organdy cloth strip (G Street Fabrics, Rockville, Md.).
Mosquitoes used in the tests were either Aedes aegypti (Liverpool) or Aedes albopictus (Asian Tiger mosquitoes (ATMs)). Ae. aegypti and Ae. albopictus were originally obtained from colonies at the Walter Reed Army Institute of Research (WRAIR), Silver Spring, Md., and were maintained in colonies at the Beltsville Agricultural Research Center, USDA, ARS, Beltsville, Md. The larvae were reared (Gerber, E. J., et al., Manual for mosquito rearing and experimental techniques, Am. Mosq. Control Assoc. Bull. 5 (revised), AMCA, Inc., Lake Charles, La. (1994)) by feeding larvae ground tropical fish pellets (Hikari Cichlid Gold Fish Food, Kamihata Fish Ind. Ltd., Himeji, Japan, www.hikari.info). Adults were held at 12:12 h (light:dark) photoperiod at 26° C. and 50% RH, and fed with a cotton pad moistened with 10% aqueous sucrose solution. For both species, adult mosquitoes used in the tests were between 5-10 days old, and were kept on water pads only for 24 hrs. prior to testing. Ae. aegypti used in a given test session were all loaded into K&D modules at one time, with five adult females/cell, and tested within I-2 hrs.
K&D modules containing five adult females/cell were placed over a Teflon separator atop each reservoir; the sliding floors opened allowing access to the treated organdy cloth and membrane-covered cell, and the number of mosquitoes biting (proboscis inserted through the cloth) and/or observed to be engorged within each cell at the end of a 3-5 min. exposure period was recorded. Mosquitoes were used only once in a test, and then frozen and discarded.
Only tests in which three or more females fed in the control cell were analyzed, as lower feeding rates are indicative of substandard feeding readiness of that group of mosquitoes.
Feeding/probing responses observed on control, standard, and experimental compound-treated cells were compared using an R-code statistical analysis (Chauhan, K. R., et al., Journal of Medical Entomology, 42: 643-646 (2005)).

In a further assay the test system is Ae. aegypti. Description: Attract and kill bait evaluation in bucket. The settings on record: sugar gel containing pyriproxyfen spiked with 5 ml of Okoumal. It counts as in vivo, Aedes aegypti. The source says: Attract and Kill Bait Evaluation: The assay system consists of a 1L plastic bucket covered with screened lid. A divider was placed to separate attract and kill bait from the control feeding. 50 Adult mosquitoes used in tests were between 5-10 days old, and were kept on water pads only for 24 hrs. prior to testing. Ae. aegypti used in each test session were all loaded into plastic bucket with attract and kill bait and control feeding formulation made with agarose gel containing sugar and color. In the preliminary semi-field trial, baits were charged with attractant candidates and deployed in to the either hut or tents. In one experiment 30 adult female Aedes aegypti mosquitoes were released, while in another trial at different location 20 adult female Aedes aegypti mosquitoes were released and observed for the attraction or attract-kill effect of the candidates. To incorporate invented field stable and long lasting attractants in the baits various putative devices were constructed and few of these attract and kill bait formulations were evaluated in the insectary and semi-field conditions. Data analysis: Attraction assay data were analyzed using the Wilcoxon two-sample test (PROC NPAR1WAY, SAS 1999) to examine the difference between the numbers of mosquitoes in control from treated baits. […]

Each structure is given as a SMILES string.

Regarding `CC1COC(C)(c2ccc3c(c2)C(C)(C)CCC3(C)C)O1` (stereo not shown) [Okoumal], the mean fed amounted to 3.6 in the assay with female Aedes aegypti (0.1% concentration), 2.8 with female Aedes aegypti (0.25% concentration), 3.5 with female Aedes aegypti (1% concentration) and 2.8 in the assay with female Aedes aegypti (5% concentration). Moreover, the mean probed came out at 3.3 in the assay on female Aedes aegypti (0.1% concentration), 3 with female Aedes aegypti (0.25% concentration), 3.9 in the assay on female Aedes aegypti (1% concentration) and 2.9 with female Aedes aegypti (5% concentration). In addition, the “feeding compared with control, in words” value in the assay on female Aedes aegypti (four different concentrations, twenty replicates) is reported as “consistent feeding on par with either control or better”. Also, the “mosquitoes in the bucket preferring feeding on treated gel over control sugar gel” value in the assay with Ae. aegypti came to 90%.

The record behind these values is patent publication US10952434B2, “Compositions and methods for attracting insects” (The United States of America, as Represented by the …, priority 2016, dated 2021).
